± gives the expanded uncertainty stated by the source.
Experiments:
[1] = refractive index (other wavelength) (dimensionless); conditions: 101 kPa, Liquid, Wavelength=632.8 nm, Newport model 1825-C
[2] = refractive index (other wavelength) (dimensionless); xn = mol fraction of the nth substance listed; conditions: 305.5 K, 101 kPa, Liquid, Wavelength=632.8 nm, Newport model 1825-C

N#Cc1ccccc1 [benzonitrile]
[1]
Conditions	refractive index
301.4 K	1.521 ± 0.0002
302.96 K	1.5202 ± 0.0002
304.8 K	1.5194 ± 0.0002
306.42 K	1.5186 ± 0.0002
307.83 K	1.5179 ± 0.0002
309.65 K	1.517 ± 0.0002

CCCCCCCCCCCCCCCCCC [octadecane] + N#Cc1ccccc1
[2]
Conditions	refractive index
x2 = 0.0996	1.4316 ± 0.0002
x2 = 0.1986	1.4362 ± 0.0002
x2 = 0.2992	1.4398 ± 0.0002
x2 = 0.4025	1.4447 ± 0.0002
x2 = 0.4955	1.4499 ± 0.0002
x2 = 0.5947	1.4567 ± 0.0002
x2 = 0.7985	1.4777 ± 0.0002
x2 = 0.8876	1.4917 ± 0.0002

CCCCCCCCCCCCCCCCCC [octadecane]
[1]
Conditions	refractive index
301.97 K	1.4339 ± 0.0002
303.42 K	1.4333 ± 0.0002
304.68 K	1.4328 ± 0.0002
306.38 K	1.4321 ± 0.0002
307.84 K	1.4315 ± 0.0002
309.28 K	1.4307 ± 0.0002
